Results on 17 compounds are retold here after patent US12145947B2, “Pyrimidine based modulators and uses thereof” (Quanta Therapeutics, Inc., priority 2022, dated 2024).

One assay addresses T1, KRAS G12D/RAF1 (Homo sapiens, UniProt P01116, G12D).
T1 construct: His6-MBP (N, cleaved yes); made in house; host or cells: E. coli
Put plainly: Protein-protein interaction (PPI) HTRF assay KRAS G12D/RAF1. It counts as binding. The note with it: Table 4. Summed up:
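HTRF pairing of His-tagged RAF1 (52-131) plus Tb-cryptate donor with GppNHp-exchanged biotin-RAS (KRAS 1-169 wt/G12D/G12V, NRAS wt) plus streptavidin-d2 acceptor; compound sits 30 min with RAS first, then 1 h RT with RAF1. IC50 derived from 665/615 ratio, untagged RAF1 defining full inhibition.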
(Time-resolved FRET reads energy transfer from a long-lived donor to a nearby acceptor.)

Assay [1] deals with GP2D cells (KRAS G12D), phospho-ERK. Put plainly: pERK In Cell Western (ICW) assay, GP2D cells. It is filed as cell-based. The note with it: Table 4, 3 hours. Summed up:
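GP2D (10,000 cells/well) and AGS (5,000 cells/well) cells were treated for 3 h at 37 °C with a 10-point, ½-log dilution series (top […]). They were then fixed and immunostained for phospho-ERK. pERK signal was normalised to DRAQ5 and expressed as % of DMSO, with IC50 from a 4-parameter fit.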

A value given as a limit tells only on which side of the number the result lay.

T1 sequence (P01116 with tags, fused parts or gaps isoform P01116-2 G12D): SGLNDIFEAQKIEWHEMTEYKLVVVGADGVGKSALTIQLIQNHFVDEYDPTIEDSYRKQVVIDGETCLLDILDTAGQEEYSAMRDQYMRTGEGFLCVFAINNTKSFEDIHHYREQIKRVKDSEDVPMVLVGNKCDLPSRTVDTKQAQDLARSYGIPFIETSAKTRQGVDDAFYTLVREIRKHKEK

Take `N#Cc1cc2n(n1)CCCN(c1nc(OC[C@@]34CCCN3C[C@H](F)C4)nc(N3CC4(CCc5sc(N)c(C#N)c54)C3)c1C#N)C2` [Compound 24, 2-amino-1′-[5-cyano-6-(2-cyano-4,6,7,8-tetrahydropyrazolo[1,5-a][1,4]diazepin-5-yl)-2-[[(2R,8S)-2-fluoro-1,2,3,5,6,7-hexahydropyrrolizin-8-yl]methoxy]pyrimidin-4-yl]spiro[5,6-dihydrocyclopenta[b]thiophene-4,3′-azetidine]-3-carbonitrile]: the IC50 – broadly, the concentration at which inhibition is half-maximal – against KRAS G12D/RAF1 fell in the range of 10000 to 100000 nM; in assay [1], 100 to 1000 nM.

Regarding `CC1CC2(CN(c3nc(OC[C@@]45CCCN4C[C@H](F)C5)nc(N4CCCn5nc(C(=O)N(C)C)c(Cl)c5C4)c3C#N)C2)c2c1sc(N)c2C#N` (stereo partly drawn) [Compound 14, 5-[6-(2-amino-3-cyano-6-methyl-spiro[5,6-dihydrocyclopenta[b]thiophene-4,3′-azetidine]-1′-yl)-5-cyano-2-[[(2R,8S)-2-fluoro-1,2,3,5,6,7-hexahydropyrrolizin-8-yl]methoxy]pyrimidin-4-yl]-3-chloro-N,N-dimethyl-4,6,7,8-tetrahydropyrazolo[1,5-a][1,4]diazepine-2-carboxamide], the IC50 lay within 100 to 1000 nM against KRAS G12D/RAF1 and 1 to 10 nM in assay [1].

Regarding `N#Cc1c(N2CCCC(=O)CC2)nc(OC[C@@]23CCCN2C[C@H](F)C3)nc1N1CC2(CCc3sc(N)c(C#N)c32)C1` [Compound 49, 2-amino-1′-[5-cyano-2-[[(2R,8S)-2-fluoro-1,2,3,5,6,7-hexahydropyrrolizin-8-yl]methoxy]-6-(4-oxoazepan-1-yl)pyrimidin-4-yl]spiro[5,6-dihydrocyclopenta[b]thiophene-4,3′-azetidine]-3-carbonitrile], the IC50 is 10000 to 100000 nM against KRAS G12D/RAF1 and 100 to 1000 nM in assay [1].

For `CN(C)C1(COc2nc(N3C[C@H]4CC[C@@H](C3)N4)c(C#N)c(N3CC4(CCc5sc(N)c(C#N)c54)C3)n2)CC1` [Compound 47, 2-amino-1′-[5-cyano-6-[(1R,5S)-3,8-diazabicyclo[3.2.1]octan-3-yl]-2-[[1-(dimethylamino)cyclopropyl]methoxy]pyrimidin-4-yl]spiro[5,6-dihydrocyclopenta[b]thiophene-4,3′-azetidine]-3-carbonitrile], the IC50 on KRAS G12D/RAF1 lay in the range of 10000 to 100000 nM; in assay [1], 10 to 100 nM.

Consider `N#Cc1c(N2CCCC3(C2)NC(=O)NC3=O)nc(OC[C@@]23CCCN2C[C@H](F)C3)nc1N1CC2(CCc3sc(N)c(C#N)c32)C1` (stereo partly drawn) [Compound 12, 2-amino-1′-[5-cyano-6-(2,4-dioxo-1,3,9-triazaspiro[4.5]decan-9-yl)-2-[[(2R,8S)-2-fluoro-1,2,3,5,6,7-hexahydropyrrolizin-8-yl]methoxy]pyrimidin-4-yl]spiro[5,6-dihydrocyclopenta[b]thiophene-4,3′-azetidine]-3-carbonitrile], for which the IC50 was in the range of 100 to 1000 nM against KRAS G12D/RAF1 and 1000 to 10000 nM in assay [1].

Take `N#Cc1c(N2C[C@H]3CC[C@@H](C2)N3)nc(OCC2(CN3C[C@@H]4C[C@H]3CO4)CC2)nc1N1CC2(CCc3sc(N)c(C#N)c32)C1` [Compound 89, 2-amino-1′-[5-cyano-6-[(1R,5S)-3,8-diazabicyclo[3.2.1]octan-3-yl]-2-[[1-[[(1S,4S)-2-oxa-5-azabicyclo[2.2.1]heptan-5-yl]methyl]cyclopropyl]methoxy]pyrimidin-4-yl]spiro[5,6-dihydrocyclopenta[b]thiophene-4,3′-azetidine]-3-carbonitrile]: the figures for the IC50 (against KRAS G12D/RAF1; in assay [1]) were 100 to 1000 nM and 10 to 100 nM, respectively.

As for `CC1CC2(CN(c3nc(OCC4(CN5CCOCC5)CC4)nc(N4C[C@H]5CC[C@@H](C4)N5)c3C#N)C2)c2c1sc(N)c2C#N` (stereo partly drawn) [Compound 45, 2-amino-1-[5-cyano-2-[[1-(morpholinomethyl)cyclopropyl]methoxy]-6-[(1R,5S)-3,8-diazabicyclo[3.2.1]octan-3-yl]pyrimidin-4-yl]-6-methyl-spiro[5,6-dihydrocyclopenta[b]thiophene-4,3′-azetidine]-3-carbonitrile], the IC50 on KRAS G12D/RAF1 fell in the range of 100 to 1000 nM; in assay [1] it was 1 to 10 nM.

Consider `Cc1noc(-c2cc3n(n2)CCCN(c2nc(OC[C@@]45CCCN4C[C@H](F)C5)nc(N4CC5(CCc6sc(N)c(C#N)c65)C4)c2C#N)C3)n1` [Compound 16, 2-amino-1′-[5-cyano-6-[2-(3-methyl-1,2,4-oxadiazol-5-yl)-4,6,7,8-tetrahydropyrazolo[1,5-a][1,4]diazepin-5-yl]-2-[[(2R,8S)-2-fluoro-1,2,3,5,6,7-hexahydropyrrolizin-8-yl]methoxy]pyrimidin-4-yl]spiro[5,6-dihydrocyclopenta[b]thiophene-4,3′-azetidine]-3-carbonitrile], for which the IC50 lay within 10000 to 100000 nM against KRAS G12D/RAF1 and 100 to 1000 nM in assay [1].

Turning to `CN(C)CC1(COc2nc(N3CCCn4nc(C(=O)N(C)C)c(Cl)c4C3)c(C#N)c(N3CC4(CCc5sc(N)c(C#N)c54)C3)n2)CC1(F)F` (stereo not shown) [Compound 87, 5-[6-(2-amino-3-cyano-spiro[5,6-dihydrocyclopenta[b]thiophene-4,3′-azetidine]-1′-yl)-5-cyano-2-[[1-[(dimethylamino)methyl]-2,2-difluoro-cyclopropyl]methoxy]pyrimidin-4-yl]-3-chloro-N,N-dimethyl-4,6,7,8-tetrahydropyrazolo[1,5-a][1,4]diazepine-2-carboxamide], the IC50 against KRAS G12D/RAF1 lay within 1000 to 10000 nM; in assay [1], 1 to 10 nM.

For the compound `CN(C)CC1(COc2nc(N3C[C@H]4CC[C@@H](C3)N4)c(C#N)c(N3CC4(CCc5sc(N)c(C#N)c54)C3)n2)COC1` [Compound 52, 2-amino-1′-[5-cyano-6-[(1R,5S)-3,8-diazabicyclo[3.2.1]octan-3-yl]-2-[[3-[(dimethylamino)methyl]oxetan-3-yl]methoxy]pyrimidin-4-yl]spiro[5,6-dihydrocyclopenta[b]thiophene-4,3′-azetidine]-3-carbonitrile], the IC50 against KRAS G12D/RAF1 lay in the range of 100 to 1000 nM; in assay [1] it was 1 to 10 nM.

As for `N#Cc1c(N2C[C@H]3CC[C@@H](C2)N3)nc(OCC2(CN3CCOCC3)CC2)nc1N1CC2(CCc3sc(N)nc32)C1` [Compound 23, 4-(2-aminospiro[5,6-dihydrocyclopenta[d]thiazole-4,3′-azetidine]-1′-yl)-2-[[1-(morpholinomethyl)cyclopropyl]methoxy]-6-[(1R,5S)-3,8-diazabicyclo[3.2.1]octan-3-yl]pyrimidine-5-carbonitrile], the figures for the IC50 (against KRAS G12D/RAF1; in assay [1]) were 1000 to 10000 nM and 10 to 100 nM, respectively.

On to `N#Cc1c(N2C[C@H]3CC[C@@H](C2)N3)nc(OCC2(CN3CCOCC3)CC2)nc1N1CC2(C1)SCc1sc(N)c(C#N)c12` [Compound 100, 2-amino-1′-[5-cyano-6-[(1R,5S)-3,8-diazabicyclo[3.2.1]octan-3-yl]-2-[[1-(morpholinomethyl)cyclopropyl]methoxy]pyrimidin-4-yl]spiro[6H-thieno[2,3-c]thiophene-4,3′-azetidine]-3-carbonitrile], for which the IC50 against KRAS G12D/RAF1 is below 100 nM; in assay [1] it was 1 to 10 nM.

Turning to `CS(=O)(=O)c1cc2n(n1)CCCN(c1nc(OC[C@@]34CCCN3C[C@H](F)C4)nc(N3CC4(CCc5sc(N)c(C#N)c54)C3)c1C#N)C2` [Compound 21, 2-amino-1′-[5-cyano-2-[[(2R,8S)-2-fluoro-1,2,3,5,6,7-hexahydropyrrolizin-8-yl]methoxy]-6-(2-methylsulfonyl-4,6,7,8-tetrahydropyrazolo[1,5-a][1,4]diazepin-5-yl)pyrimidin-4-yl]spiro[5,6-dihydrocyclopenta[b]thiophene-4,3′-azetidine]-3-carbonitrile], the IC50 against KRAS G12D/RAF1 fell in the range of 1000 to 10000 nM; in assay [1] it was 10 to 100 nM.

Turning to `N#Cc1c(N2CCCn3nc(-c4ccccn4)c(Cl)c3C2)nc(OCC2(CN3CCOCC3)CC2)nc1N1CC2(CCc3sc(N)c(C#N)c32)C1` [Compound 75, 2-amino-1′-[6-[3-chloro-2-(2-pyridyl)-4,6,7,8-tetrahydropyrazolo[1,5-a][1,4]diazepin-5-yl]-5-cyano-2-[[1-(morpholinomethyl)cyclopropyl]methoxy]pyrimidin-4-yl]spiro[5,6-dihydrocyclopenta[b]thiophene-4,3′-azetidine]-3-carbonitrile], the IC50 against KRAS G12D/RAF1 fell in the range of 100 to 1000 nM; in assay [1], 10 to 100 nM.

Turning to `N#Cc1c(N2CCCCCC2)nc(OC[C@@]23CCCN2C[C@H](F)C3)nc1N1CC2(CCc3sc(N)c(C#N)c32)C1` [Compound 19, 2-amino-1′-[6-(azepan-1-yl)-5-cyano-2-[[(2R)-2-fluoro-1,2,3,5,6,7-hexahydropyrrolizin-8-yl]methoxy]pyrimidin-4-yl]spiro[5,6-dihydrocyclopenta[b]thiophene-4,3′-azetidine]-3-carbonitrile], the IC50 at KRAS G12D/RAF1 fell in the range of 1000 to 10000 nM; in assay [1], 100 to 1000 nM.

For the compound `N#Cc1c(N2CCCC(C#N)CC2)nc(OC[C@@]23CCCN2C[C@H](F)C3)nc1N1CC2(CCc3sc(N)c(C#N)c32)C1` (stereo partly drawn) [Compound 33, 2-amino-1′-[5-cyano-6-(4-cyanoazepan-1-yl)-2-[[(2R,8S)-2-fluoro-1,2,3,5,6,7-hexahydropyrrolizin-8-yl]methoxy]pyrimidin-4-yl]spiro[5,6-dihydrocyclopenta[b]thiophene-4,3′-azetidine]-3-carbonitrile], the values for the IC50 (on KRAS G12D/RAF1; in assay [1]) were 1000 to 10000 nM and 100 to 1000 nM, respectively.

Turning to `N#Cc1c(N2C[C@H]3CC[C@@H](C2)N3)nc(OCC2(CN3CCC(F)(F)CC3)CC2)nc1N1CC2(CCc3sc(N)c(C#N)c32)C1` [Compound 34, 2-amino-1′-[5-cyano-6-(3,8-diazabicyclo[3.2.1]octan-3-yl)-2-[[1-[(4,4-difluoro-1-piperidyl)methyl]cyclopropyl]methoxy]pyrimidin-4-yl]spiro[5,6-dihydrocyclopenta[b]thiophene-4,3′-azetidine]-3-carbonitrile], the figures for the IC50 (on KRAS G12D/RAF1; in assay [1]) were 100 to 1000 nM and 1 to 10 nM, respectively.
